Reference: ChEMBL document CHEMBL1144332, “1,2,4-Benzothiadiazine derivatives as alpha1 and 5-HT1A receptor ligands” (Bioorg Med Chem Lett, 2005)

Assays:
[1] = molecular target: T1, Alpha-1A adrenergic receptor (Rattus norvegicus) (UniProt P43140); test: Antagonist potency against the alpha-1A adrenergic receptor was determined in isolated rat prostatic vas deferens; type: functional, tissue-based
T1 sequence (whole entry): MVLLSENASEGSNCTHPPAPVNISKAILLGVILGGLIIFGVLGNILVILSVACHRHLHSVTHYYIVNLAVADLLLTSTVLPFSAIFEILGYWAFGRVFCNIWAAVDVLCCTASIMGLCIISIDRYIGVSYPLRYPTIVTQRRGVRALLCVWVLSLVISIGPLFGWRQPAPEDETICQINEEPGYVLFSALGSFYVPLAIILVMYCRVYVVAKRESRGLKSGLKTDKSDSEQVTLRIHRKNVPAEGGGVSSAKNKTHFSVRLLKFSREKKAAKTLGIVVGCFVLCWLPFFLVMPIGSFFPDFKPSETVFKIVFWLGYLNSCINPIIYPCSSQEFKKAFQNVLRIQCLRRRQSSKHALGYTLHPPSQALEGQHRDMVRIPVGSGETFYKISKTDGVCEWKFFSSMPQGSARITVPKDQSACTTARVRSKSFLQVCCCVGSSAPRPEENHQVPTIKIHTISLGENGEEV

[2] = molecular target: Alpha adrenergic receptor 1A and 1D (Rattus norvegicus) (UniProt P23944+P43140); test: Selectivity towards alpha 1D and alpha 1A adrenergic receptors; type: protein assay
[3] = Selectivity towards 5-hydroxytryptamine 1A and alpha 1D adrenergic receptors was determined
[4] = molecular target: T2, Alpha-1D adrenergic receptor (Rattus norvegicus) (UniProt P23944); test: Antagonist potency against the alpha-1D adrenergic receptor was determined in isolated rat thoracic aorta; type: functional, tissue-based
T2 sequence (whole entry): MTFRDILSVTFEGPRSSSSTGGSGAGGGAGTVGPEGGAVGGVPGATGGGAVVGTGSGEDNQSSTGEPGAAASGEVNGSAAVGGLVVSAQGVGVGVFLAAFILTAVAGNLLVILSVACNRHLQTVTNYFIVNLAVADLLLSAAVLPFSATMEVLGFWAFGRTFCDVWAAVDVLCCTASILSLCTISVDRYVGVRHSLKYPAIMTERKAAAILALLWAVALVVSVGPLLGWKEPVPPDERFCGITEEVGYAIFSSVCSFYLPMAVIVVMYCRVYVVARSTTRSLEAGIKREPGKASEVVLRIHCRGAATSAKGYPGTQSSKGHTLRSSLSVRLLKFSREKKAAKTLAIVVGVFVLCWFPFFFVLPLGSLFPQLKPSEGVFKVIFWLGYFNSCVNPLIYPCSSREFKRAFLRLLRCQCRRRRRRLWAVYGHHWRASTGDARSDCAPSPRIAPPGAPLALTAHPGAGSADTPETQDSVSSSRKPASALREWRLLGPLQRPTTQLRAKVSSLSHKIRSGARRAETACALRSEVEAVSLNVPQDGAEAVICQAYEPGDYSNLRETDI

[5] = molecular target: T3, 5-hydroxytryptamine receptor 1A (Homo sapiens, UniProt P08908); test: Inhibitory constant value against the 5-hydroxytryptamine 1A receptor
T3 sequence (P08908 whole entry): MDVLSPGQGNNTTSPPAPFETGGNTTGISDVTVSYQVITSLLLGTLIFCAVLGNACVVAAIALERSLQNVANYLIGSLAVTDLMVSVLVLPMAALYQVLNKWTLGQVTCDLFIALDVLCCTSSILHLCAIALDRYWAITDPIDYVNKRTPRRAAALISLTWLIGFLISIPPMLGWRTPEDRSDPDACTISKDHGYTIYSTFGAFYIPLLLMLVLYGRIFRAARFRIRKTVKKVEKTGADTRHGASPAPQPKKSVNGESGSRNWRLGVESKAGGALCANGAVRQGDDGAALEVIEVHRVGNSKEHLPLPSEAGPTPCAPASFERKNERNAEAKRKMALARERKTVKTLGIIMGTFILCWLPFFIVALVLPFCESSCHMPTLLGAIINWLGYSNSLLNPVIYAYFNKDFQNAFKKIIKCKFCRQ

Rattus norvegicus = organism: Rattus norvegicus; test: Selectivity towards alpha 1D and alpha 1B adrenergic receptors
[6] = molecular target: Alpha adrenergic receptor 1A and 1B (Rattus norvegicus) (UniProt P15823+P43140); test: Selectivity towards alpha 1B and alpha 1A adrenergic receptors; type: protein assay
[7] = molecular target: T4, Alpha-1B adrenergic receptor (Rattus norvegicus) (UniProt P15823); test: Antagonist potency against the alpha-1B adrenergic receptor determined in isolated rat spleen; type: functional, tissue-based
T4 sequence (whole entry): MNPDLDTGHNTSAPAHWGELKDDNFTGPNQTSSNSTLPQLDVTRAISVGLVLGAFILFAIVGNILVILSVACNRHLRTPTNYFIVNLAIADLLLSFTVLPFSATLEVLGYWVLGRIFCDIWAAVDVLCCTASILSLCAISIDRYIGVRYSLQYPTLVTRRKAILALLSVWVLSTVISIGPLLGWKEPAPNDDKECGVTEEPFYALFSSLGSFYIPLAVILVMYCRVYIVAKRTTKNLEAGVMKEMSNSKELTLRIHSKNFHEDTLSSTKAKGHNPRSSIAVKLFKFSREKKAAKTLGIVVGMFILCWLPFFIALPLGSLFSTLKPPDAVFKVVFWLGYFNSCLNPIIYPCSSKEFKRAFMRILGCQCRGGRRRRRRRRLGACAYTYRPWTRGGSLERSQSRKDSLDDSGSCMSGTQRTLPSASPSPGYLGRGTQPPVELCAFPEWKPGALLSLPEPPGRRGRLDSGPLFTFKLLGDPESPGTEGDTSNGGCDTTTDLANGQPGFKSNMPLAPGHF

[8] = molecular target: T5, 5-hydroxytryptamine receptor 1A (Homo sapiens) (UniProt P08908); test: The maximal stimulation of [35S]GTP-gamma-S, binding (Emax) against the 5-hydroxytryptamine 1A receptor; type: functional
T5 sequence (whole entry): T3 sequence (P08908 whole entry)

[9] = molecular target: T5, 5-hydroxytryptamine receptor 1A (Homo sapiens); test: Potency against the 5-hydroxytryptamine 1A receptor determined by using [35S]GTP-gamma-S, binding; type: functional
[10] = molecular target: T3, 5-hydroxytryptamine receptor 1A; test: Inhibitory constant value against 5-hydroxytryptamine 1A receptor

Row | SMILES | pKb [1] | Selectivity [2] | Selectivity [3] | pKb [4] | Ki [5] [nM] | Selectivity (Rattus norvegicus) | Selectivity [6] | pKb [7] | Emax [8] | pD2 [9] | Ki [10] [nM]
1 | COc1ccccc1N1CCN(CC2Nc3cc(Cl)ccc3S(=O)(=O)N2)CC1 (configuration not stated) | 5.05 | 1 | 1100 | 5 | 9.12 | 1 | 1 | 5.09 | 23 | 6.92 | 
2 | COc1ccccc1N1CCN(CC2=NS(=O)(=O)c3ccc(C)cc3N2)CC1 | < 5 | > 3 |  | 5.5 | 107 | 0.28 | > 11 | 6.05 |  |  | 
3 | COc1ccccc1N1CCN(CC2Nc3cc(C)ccc3S(=O)(=O)N2)CC1 (configuration not stated) | 6 | 0.95 | < 10 | 5.98 |  | 0.55 | 2 | 6.24 |  |  | 
4 | COc1ccccc1N1CCN(CC2=NS(=O)(=O)c3ccc(Cl)cc3N2)CC1 | 5.28 | 295 | 0.38 | 7.75 | 46.8 | 38 | 8 | 6.17 |  |  | 
5 | COc1ccccc1N1CCN(CC2Nc3ccccc3S(=O)(=O)N2)CC1 (configuration not stated) | 5.81 | 0.35 | 275 | 5.34 | 16.6 | 0.23 | 1.5 | 5.97 |  |  | 
6 | COc1ccccc1N1CCN(CC2=NS(=O)(=O)c3ccccc3N2)CC1 | < 5 | > 389 | < 0.03 | 7.59 |  | 135 | > 3 | 5.46 |  |  | > 1000
7 | COc1ccccc1N1CCN(CCN2C(=O)CC3(CCCC3)CC2=O)CC1 [BMY-7378] |  |  |  |  | 1.26 |  |  | 7.48 | 26 | 9.27 | 
